From the supplement of paper PMC8633005

What was measured:
Experiment in all cases: drug sensitivity score (DSS) (DSS (unitless, 0-50 scale)); higher = more sensitive (stronger viability inhibition); extreme values may be limits of the assay
Settings in all cases: 72 h; culture: 2D
Bowes = tested on: Bowes
Summary of the method: (§1)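 Patient-derived melanoma cultures (1000–1500 cells per well) and melanoma cell lines were grown in 2D in 384-well plates holding a 527-compound oncology library. Each compound was dissolved in DMSO or water and tested at five concentrations spanning a 10,000-fold range. After 72 h at 37 °C, viability was read by CellTiter-Glo luminescence. A drug sensitivity score, a modified area-under-curve measure, was derived from dose-response curves fitted in the in-house Breeze software.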

SK-MEL-2 = tested on: SK-MEL-2
Summary of the method: as §1

SK-MEL-28 = tested on: SK-MEL-28
Summary of the method: as §1

FM-MEL-2 = tested on: FM-MEL-2
Summary of the method: as §1

WM165 = tested on: WM165
Summary of the method: as §1

FM-MEL-6 = tested on: FM-MEL-6
Summary of the method: as §1

WM852 = tested on: WM852
Summary of the method: as §1

FM-MEL-3 = tested on: FM-MEL-3
Summary of the method: as §1

Structure (SMILES)	drug sensitivity score (Bowes)	drug sensitivity score (SK-MEL-2)	drug sensitivity score (SK-MEL-28)	drug sensitivity score (FM-MEL-2)	drug sensitivity score (WM165)	drug sensitivity score (FM-MEL-6)	drug sensitivity score (WM852)	drug sensitivity score (FM-MEL-3)
CON(C)C(=O)N1N=C(c2cc(F)ccc2F)S[C@@]1(CCCN)c1ccccc1 [Filanesib]	12.5	16.5	4.5	4.7	17.4	11.3	23.3	10
O=C(Nc1nc2cccc(-c3ccc(CN4CCS(=O)(=O)CC4)cc3)n2n1)C1CC1 [Filgotinib]	4.5	0	0	0	0.7	4.5	5.9	0
CC(C)(C)NC(=O)[C@H]1CC[C@H]2[C@@H]3CC[C@H]4NC(=O)C=C[C@]4(C)[C@H]3CC[C@]12C [Finasteride]	0	0	0	0	0	0	0	0
CCCCCCCCc1ccc(CCC(N)(CO)CO)cc1 [Fingolimod]	8.5	5.7	6.2	6.2	6.3	6.4	7	7.5
O=c1[nH]c(=O)n([C@H]2C[C@H](O)[C@@H](CO)O2)cc1F [Floxuridine]	15.7	0	8	0.4	18.4	1.2	4.9	0
Nc1nc(F)nc2c1ncn2[C@@H]1O[C@H](CO)[C@@H](O)[C@@H]1O [Fludarabine]	0	4.7	1.1	1.4	0	3.1	0	0.6
O=c1[nH]cc(F)c(=O)[nH]1 [Fluorouracil]	0	0	0.7	1.7	2.3	0.7	0	0.4
CC(C)C(=O)Nc1ccc([N+](=O)[O-])c(C(F)(F)F)c1 [Flutamide]	0.1	0	0	0	0	0	0.5	0.5
COc1cc2c(Oc3ccc(NC(=O)C4(C(=O)Nc5ccc(F)cc5)CC4)cc3F)ccnc2cc1OCCCN1CCOCC1 [Foretinib]	5.1	0	2.6	3.1	2.6	0.9	2.2	3.2
COc1cc(Nc2ncc(F)c(Nc3ccc4c(n3)N(COP(=O)(O)O)C(=O)C(C)(C)O4)n2)cc(OC)c1OC [Fostamatinib]	2	0	2	4.6	3.5	1.9	0.5	2.1
C[C@]12CC[C@@H]3c4ccc(O)cc4C[C@@H](CCCCCCCCC[S+]([O-])CCCC(F)(F)C(F)(F)F)[C@H]3[C@@H]1CC[C@@H]2O (stereo partly specified) [Fulvestrant]	0	0	0	0	0	0	0	0
CC1(C)OCCn2c1nc1c(N3CCOCC3)nc(-c3cnc(N)nc3)nc12 [GDC-0084]	9.4	8.1	7.7	9.6	8.4	7.8	7.7	8.4
O=C(NOCCO)c1ccc2cncn2c1Nc1ccc(I)cc1F [GDC-0623]	1.4	16.8	8.9	16.5	7.6	6.2	2.4	8.9
C[C@H]1CN(C2COC2)CCN1c1ccc(Nc2cc(-c3ccnc(N4CCn5c(cc6c5CC(C)(C)C6)C4=O)c3CO)cn(C)c2=O)nc1 [GDC-0853]	0	0	0	0	0	0	0	0
O[C@H](C[C@H]1c2c(F)cccc2-c2cncn21)[C@H]1CC[C@H](O)CC1 [GDC-0919]	0.3	0	0.5	0.4	0	1.1	1.2	0.7
CNc1nc(Nc2cn(C(C)(C)C#N)nc2C)ncc1C(F)(F)F [GNE-0877]	0	0	0	0	0	0	0	0
CCNc1nc(Nc2cc(F)c(C(=O)N3CCOCC3)cc2OC)ncc1C(F)(F)F [GNE-7915]	0	0	0	0	0	0	0	2.6
CCCc1cc(C)[nH]c(=O)c1CNC(=O)c1cc(-c2ccnc(N3CCN(C)CC3)c2)cc2c1cnn2C(C)C [GSK343]	0	0.1	0	0.1	0	0	0	0.2
CCCOc1ccn2c(C(C)=O)cc(-c3ccccc3S(C)(=O)=O)c2c1 [GSK2801]	0.7	0	0	0.1	0	0	0	0
CCOC(=O)CCNc1cc(N2CCc3ccccc3CC2)nc(-c2ccccn2)n1 [GSK-J4]	11.2	0	0	1	3.2	1.3	2.3	20.9
C[C@@H]1C=C2C(=O)O[C@@H]3CC[C@H](C1)[C@]23O [Galiellalactone]	8.4	0	5.8	2.9	6.9	0.7	5.1	5.2

Structure (SMILES)	drug sensitivity score (Bowes)	drug sensitivity score (SK-MEL-2)	drug sensitivity score (SK-MEL-28)	drug sensitivity score (FM-MEL-2)	drug sensitivity score (WM165)	drug sensitivity score (FM-MEL-6)	drug sensitivity score (WM852)	drug sensitivity score (FM-MEL-3)
Cc1cccc(-c2nn3c(c2-c2ccnc4ccc(C(N)=O)cc24)CCC3)n1 [Galunisertib]	0	0	0	0	0	0	0	0
Cc1cc(Nc2cc(CN3CCOCC3)c3nc(C)c(Cc4ccc(Cl)cc4F)n3n2)n[nH]1 [Gandotinib]	4.8	0	3.6	3	5.9	2.2	4	6.9
CC(C)c1cc(-c2n[nH]c(=O)n2-c2ccc3c(ccn3C)c2)c(O)cc1O [Ganetespib]	15.2	12.8	8.5	11.2	17.1	7	9.9	21
CN(C)C1CCN(C(=O)c2ccc(NC(=O)Nc3ccc(-c4nc(N5CCOCC5)nc(N5CCOCC5)n4)cc3)cc2)CC1 [Gedatolisib]	12.6	10.6	9.5	6.1	14.8	9.4	7.5	9.8
COc1cc2ncnc(Nc3ccc(F)c(Cl)c3)c2cc1OCCCN1CCOCC1 [Gefitinib]	2.9	0	2.9	2.6	4.6	2.7	3	2.4
Nc1ccn([C@@H]2O[C@H](CO)[C@@H](O)C2(F)F)c(=O)n1 [Gemcitabine]	0	6.3	13.7	4.3	18.9	10.3	0	8.6
CCc1nc(C(N)=O)c(Nc2ccc(N3CCC(N4CCN(C)CC4)CC3)c(OC)c2)nc1NC1CCOCC1 [Gilteritinib]	0	1.7	2.7	3.7	2.8	1.9	1.8	5
CCN(CC)Cc1ccc2cc(COC(=O)Nc3ccc(C(=O)NO)cc3)ccc2c1 [Givinostat]	2	5.6	4.9	4.3	6.6	5.8	2.2	5.2
CN1CC[C@@H](NC(=O)Nc2ccc(C#N)cc2)C[C@@H]1c1nc2ccccc2[nH]1 [Glasdegib]	0	0	0	0	0	0	0	0
COCCNCc1ccc(-c2cc3nccc(Oc4ccc(NC(=S)NC(=O)Cc5ccc(F)cc5)cc4F)c3s2)nc1 [Glesatinib]	0	0	0	0.4	0	0	0	0
CN1CCN(C2CCN(C(=O)Nc3cc(Oc4ccc(NC(=O)C5(C(=O)Nc6ccc(F)cc6)CC5)c(F)c4)ccn3)CC2)CC1 [Golvatinib]	2.3	0	0	1.5	0	0	0.5	0
CC(C)C[C@H](NC(=O)[C@@H](COC(C)(C)C)NC(=O)[C@H](Cc1ccc(O)cc1)NC(=O)[C@H](CO)NC(=O)[C@H](Cc1c[nH]c2ccccc12)NC(=O)[C@H](Cc1cnc[nH]1)NC(=O)[C@@H]1CCC(=O)N1)C(=O)N[C@@H](CCCNC(=N)N)C(=O)N1CCC[C@H]1C(=O)NNC(N)=O [Goserelin]	0	0	0	0	0	0	0	0
O=S(=O)(c1cccc2c(O)nccc12)N1CCCNCC1 [Hydroxyfasudil]	0	0	0	0	0	1.8	0	0
NC(=O)NO [Hydroxyurea]	2.4	0	0	0	0.1	2.2	0	6.8
COc1cc2c(cc1-c1c(C)noc1C)ncc1[nH]c(=O)n([C@H](C)c3ccccn3)c12 [I-BET151]	4.6	0.3	3.1	5.2	8.7	5	0	4.7
O=C(O)c1ccc(O)c2ncccc12 [IOX-1]	0	0	0.8	0.4	4.3	0.9	0	0.8
O=C(O)CNC(=O)c1c(O)c2ccccc2n(Cc2ccccc2)c1=O [IOX-2]	0	0	0	0	0	0	0.2	0
C=CC(=O)N1CCC[C@@H](n2nc(-c3ccc(Oc4ccccc4)cc3)c3c(N)ncnc32)C1 [Ibrutinib]	2.8	0	0	0.2	0	0	0	0
C#Cc1cccc(Nc2ncnc3cc4c(cc23)OCCOCCOCCO4)c1 [Icotinib]	0	0	0.1	0.4	0	0.9	0.1	0.1
CC(=O)[C@]1(O)Cc2c(O)c3c(c(O)c2[C@@H](O[C@H]2C[C@H](N)[C@H](O)[C@H](C)O2)C1)C(=O)c1ccccc1C3=O [Idarubicin]	5.4	9.7	8.4	8.4	15.4	8.1	4.8	10.9
COc1cc(C(=O)O)ccc1NC(=O)[C@@H]1N[C@@H](CC(C)(C)C)[C@](C#N)(c2ccc(Cl)cc2F)[C@H]1c1cccc(Cl)c1F [Idasanutlin]	3.4	0	0	3.7	22.7	0.3	0	19.7
